Tested on: MV-4-11 cells
Experiment: Gene expression microarray analysis (Affymetrix PrimeView) and GSEA
Type: cell-based, human
Design: RFU PODN (11730768_x_at) / Fold change /veh PODN (11730768_x_at) / RFU LINC00158 (11744669_a_at) / Fold change /veh LINC00158 (11744669_a_at) / RFU DUSP10 (11751237_a_at) / Fold change /veh DUSP10 (11751237_a_at) / RFU ID3 (11757404_x_at) / Fold change /veh ID3 (11757404_x_at) / RFU PLEKHG5 (11737974_s_at) / Fold change /veh PLEKHG5 (11737974_s_at) / RFU LRRC4B (11730491_at) / Fold change /veh LRRC4B (11730491_at) / RFU GIMAP4 (11747438_a_at) / Fold change /veh GIMAP4 (11747438_a_at) / RFU KRT8 (11758183_x_at) / Fold change /veh KRT8 (11758183_x_at) / RFU CNN1 (11734310_a_at) / Fold change /veh CNN1 (11734310_a_at) / RFU VPS37D (11726825_at) / Fold change /veh VPS37D (11726825_at) / RFU C10orf10 (11716522_x_at) / Fold change /veh C10orf10 (11716522_x_at) / RFU KIR2DL2 /// KIR2DL4 /// KIR2DL5A /// KIR2DL5B /// KIR2DS1 /// KIR2DS2 /// KIR2DS3 /// KIR2DS4 /// KIR3DL3 /// KIR3DL3 /// KIR3DS1 (11738374_at) / Fold change /veh KIR2DL2 /// KIR2DL4 /// KIR2DL5A /// KIR2DL5B /// KIR2DS1 /// KIR2DS2 /// KIR2DS3 /// KIR2DS4 /// KIR3DL3 /// KIR3DL3 /// KIR3DS1 (11738374_at) / RFU C1QL1 (11718748_at) / Fold change /veh C1QL1 (11718748_at) / RFU TMPRSS4 (11747572_a_at) / Fold change /veh TMPRSS4 (11747572_a_at) / RFU HAMP (11756126_x_at) / Fold change /veh HAMP (11756126_x_at) / RFU RNFT2 (11725882_a_at) / Fold change /veh RNFT2 (11725882_a_at) / RFU NR4A2 (11747474_a_at) / Fold change /veh NR4A2 (11747474_a_at) / RFU ABCC12 (11746883_a_at) / Fold change /veh ABCC12 (11746883_a_at) / RFU TMEM136 (11760407_x_at) / Fold change /veh TMEM136 (11760407_x_at) / RFU CLDN22 /// WWC2 (11732394_at) / Fold change /veh CLDN22 /// WWC2 (11732394_at) / RFU HLA-DPB1 (11760878_x_at) / Fold change /veh HLA-DPB1 (11760878_x_at) / RFU SPINT1 (11716480_a_at) / Fold change /veh SPINT1 (11716480_a_at) / RFU GAP43 (11754022_s_at) / Fold change /veh GAP43 (11754022_s_at) / RFU A4GNT (11735810_at) / Fold change /veh A4GNT (11735810_at) / RFU PRB3 (11715151_x_at) / Fold change /veh PRB3 (11715151_x_at) / RFU TUBB4B (11761932_at) / Fold change /veh TUBB4B (11761932_at) / RFU CAPN14 (11732068_a_at) / Fold change /veh CAPN14 (11732068_a_at) / RFU TMCC2 (11721928_a_at) / Fold change /veh TMCC2 (11721928_a_at) / RFU IRGQ (11745062_a_at) / Fold change /veh IRGQ (11745062_a_at) / RFU FAM174B (11720279_a_at) / Fold change /veh FAM174B (11720279_a_at) / RFU TMPRSS4 (11748680_a_at) / Fold change /veh TMPRSS4 (11748680_a_at) / RFU FAM212B (11763350_a_at) / Fold change /veh FAM212B (11763350_a_at) / RFU PLEKHG5 (11743358_a_at) / Fold change /veh PLEKHG5 (11743358_a_at) / RFU ZSCAN30 (11745921_a_at) / Fold change /veh ZSCAN30 (11745921_a_at) / RFU CMKLR1 (11741424_a_at) / Fold change /veh CMKLR1 (11741424_a_at) / RFU LOC101060620 /// MAPK8IP1 (11723275_at) / Fold change /veh LOC101060620 /// MAPK8IP1 (11723275_at) / RFU SPTSSB (11747773_x_at) / Fold change /veh SPTSSB (11747773_x_at) / RFU PRSS12 (11739890_at) / Fold change /veh PRSS12 (11739890_at) / RFU BIN1 (11741810_x_at) / Fold change /veh BIN1 (11741810_x_at) / RFU WNT11 (11732464_a_at) / Fold change /veh WNT11 (11732464_a_at) / RFU C10orf10 (11716521_a_at) / Fold change /veh C10orf10 (11716521_a_at) / RFU C5orf56 (11738089_at) / Fold change /veh C5orf56 (11738089_at) / RFU CYB561 (11721691_x_at) / Fold change /veh CYB561 (11721691_x_at) / RFU ANKRD19P (11752326_a_at) / Fold change /veh ANKRD19P (11752326_a_at) / RFU OR2T12 /// OR2T33 /// OR2T8 (11738714_s_at) / Fold change /veh OR2T12 /// OR2T33 /// OR2T8 (11738714_s_at) / RFU VCAN (11748164_a_at) / Fold change /veh VCAN (11748164_a_at) / RFU JSRP1 (11732532_at) / Fold change /veh JSRP1 (11732532_at) / RFU KRTAP10-11 (11738290_x_at) / Fold change /veh KRTAP10-11 (11738290_x_at) / RFU MYO3A (11730013_a_at) / Fold change /veh MYO3A (11730013_a_at) / RFU EBF3 (11725865_a_at) / Fold change /veh EBF3 (11725865_a_at) / RFU CAMK2N1 (11719241_x_at) / Fold change /veh CAMK2N1 (11719241_x_at) / RFU C5orf56 (11738088_a_at) / Fold change /veh C5orf56 (11738088_a_at) / RFU OLFML3 (11715873_a_at) / Fold change /veh OLFML3 (11715873_a_at) / RFU LOC100653217 /// NTM (11731650_a_at) / Fold change /veh LOC100653217 /// NTM (11731650_a_at) / RFU MAPK11 (11762145_a_at) / Fold change /veh MAPK11 (11762145_a_at) / RFU FIZ1 (11724087_x_at) / Fold change /veh FIZ1 (11724087_x_at) / RFU OASL (11726364_x_at) / Fold change /veh OASL (11726364_x_at) / RFU SOX15 (11748057_x_at) / Fold change /veh SOX15 (11748057_x_at) / RFU CD79A (11719716_a_at) / Fold change /veh CD79A (11719716_a_at) / RFU HIST1H1D (11736915_at) / Fold change /veh HIST1H1D (11736915_at) / RFU CASKIN2 (11723855_a_at) / Fold change /veh CASKIN2 (11723855_a_at) / RFU LOC730098 (11760151_x_at) / Fold change /veh LOC730098 (11760151_x_at) / RFU OR4N2 (11742367_at) / Fold change /veh OR4N2 (11742367_at) / RFU PRRT2 (11749266_a_at) / Fold change /veh PRRT2 (11749266_a_at) / RFU SNX32 (11753110_a_at) / Fold change /veh SNX32 (11753110_a_at) / RFU CDHR5 (11726645_a_at) / Fold change /veh CDHR5 (11726645_a_at) / RFU RCAN1 (11760418_a_at) / Fold change /veh RCAN1 (11760418_a_at) / RFU FAM167A (11723789_a_at) / Fold change /veh FAM167A (11723789_a_at) / RFU FAM26E (11764081_at) / Fold change /veh FAM26E (11764081_at) / RFU ISYNA1 (11749810_s_at) / Fold change /veh ISYNA1 (11749810_s_at) / RFU ACY1 (11761880_at) / Fold change /veh ACY1 (11761880_at) / RFU 11764098_at / Fold change /veh 11764098_at / RFU SAMD14 (11745864_x_at) / Fold change /veh SAMD14 (11745864_x_at) / RFU NPB (11741838_a_at) / Fold change /veh NPB (11741838_a_at) / RFU TMPRSS6 (11731388_a_at) / Fold change /veh TMPRSS6 (11731388_a_at) / RFU KRTAP10-2 (11738614_at) / Fold change /veh KRTAP10-2 (11738614_at) / RFU ARHGAP8 /// PRR5-ARHGAP8 (11727945_x_at) / Fold change /veh ARHGAP8 /// PRR5-ARHGAP8 (11727945_x_at) / RFU KRTAP5-7 /// NADSYN1 (11734609_at) / Fold change /veh KRTAP5-7 /// NADSYN1 (11734609_at) / RFU RASL12 (11751679_a_at) / Fold change /veh RASL12 (11751679_a_at) / RFU CDKN2B (11736163_a_at) / Fold change /veh CDKN2B (11736163_a_at) / RFU PRF1 (11729649_at) / Fold change /veh PRF1 (11729649_at) / RFU, ZNF638 /// ZNF638-IT1 / Fold change vs veh, ZNF638 /// ZNF638-IT1 / RFU, PANK3 / Fold change vs veh, PANK3 / RFU, SH3YL1 / Fold change vs veh, SH3YL1 / RFU, ZEB2 / Fold change vs veh, ZEB2 / RFU, NRIP1 / Fold change vs veh, NRIP1 / RFU, PTTG1IP / Fold change vs veh, PTTG1IP / RFU, CAPN2 / Fold change vs veh, CAPN2 / RFU, MED14 / Fold change vs veh, MED14 / RFU, SNORA58 / Fold change vs veh, SNORA58 / RFU, C1orf63 / Fold change vs veh, C1orf63 / RFU, LRRFIP1 / Fold change vs veh, LRRFIP1 / RFU, NDUFAF7 / Fold change vs veh, NDUFAF7 / RFU, SLC12A2 / Fold change vs veh, SLC12A2 / RFU, IBTK / Fold change vs veh, IBTK / RFU, ESF1 / Fold change vs veh, ESF1 / Fold change vs veh, TMEM50B / RFU, TAOK1 / Fold change vs veh, TAOK1 / RFU, ACBD3 / Fold change vs veh, ACBD3 / RFU, TMA16 / Fold change vs veh, TMA16 / RFU, RWDD3 / Fold change vs veh, RWDD3 / RFU, BCAT1 / Fold change vs veh, BCAT1 / RFU, EDEM3 / Fold change vs veh, EDEM3 / RFU, TMEM33 / Fold change vs veh, TMEM33 / RFU, WDR75 / Fold change vs veh, WDR75 / RFU, AHCTF1 / Fold change vs veh, AHCTF1 / RFU, TFRC / Fold change vs veh, TFRC / RFU, ZDHHC17 / Fold change vs veh, ZDHHC17 / RFU, NOM1 / Fold change vs veh, NOM1 / RFU, ARL8B / Fold change vs veh, ARL8B / RFU, ZBTB11 / Fold change vs veh, ZBTB11 / RFU, TAMM41 / Fold change vs veh, TAMM41 / RFU, KIAA1704 /// LOC100996395 / Fold change vs veh, KIAA1704 /// LOC100996395 / RFU, ING1 / Fold change vs veh, ING1 / RFU, TRMT61B / Fold change vs veh, TRMT61B / RFU, FUBP3 / Fold change vs veh, FUBP3 / RFU, TP53 / Fold change vs veh, TP53 / RFU, TNKS2 / Fold change vs veh, TNKS2 / RFU, ZFP14 / Fold change vs veh, ZFP14 / RFU, ACTR2 / Fold change vs veh, ACTR2 / RFU, PPP3R1 / Fold change vs veh, PPP3R1 / RFU, PIK3R1 / Fold change vs veh, PIK3R1 / RFU, HNRNPA1 / Fold change vs veh, HNRNPA1 / RFU, RNF170 / Fold change vs veh, RNF170 / RFU, ZNF28 / Fold change vs veh, ZNF28 / RFU, RNGTT / Fold change vs veh, RNGTT / RFU, OGT / Fold change vs veh, OGT / RFU, BRD1 / Fold change vs veh, BRD1 / RFU, MARS / Fold change vs veh, MARS / RFU, ZNF655 / Fold change vs veh, ZNF655 / RFU, FAHD1 / Fold change vs veh, FAHD1 / RFU, BDP1 / Fold change vs veh, BDP1 / RFU, LRRCC1 / Fold change vs veh, LRRCC1 / RFU, ARID1A / Fold change vs veh, ARID1A / RFU, ZNF146 / Fold change vs veh, ZNF146 / RFU, ZNF330 / Fold change vs veh, ZNF330 / RFU, GPN3 / Fold change vs veh, GPN3 / RFU, C9orf123 / Fold change vs veh, C9orf123 / RFU, N4BP2L2 / Fold change vs veh, N4BP2L2 / RFU, ARFIP1 / Fold change vs veh, ARFIP1 / RFU, FAM179B / Fold change vs veh, FAM179B / RFU, BCL10 / Fold change vs veh, BCL10 / RFU, UHRF1BP1L / Fold change vs veh, UHRF1BP1L / RFU, BET1 / Fold change vs veh, BET1 / RFU, CNOT2 / Fold change vs veh, CNOT2 / RFU, ZNF268 / Fold change vs veh, ZNF268 / Fold change vs veh, ZNF507 / RFU, DGCR2 / Fold change vs veh, DGCR2 / RFU, WDSUB1 / Fold change vs veh, WDSUB1 / Fold change vs veh, HSP90B1 /// MIR3652 / RFU, ADSS / Fold change vs veh, ADSS / RFU, GK / Fold change vs veh, GK / RFU, ZNF148 / Fold change vs veh, ZNF148 / RFU, TAF9 / Fold change vs veh, TAF9 / RFU, SLC1A5 / Fold change vs veh, SLC1A5 / RFU, SLMO2 / Fold change vs veh, SLMO2 / RFU, ABCC4 / Fold change vs veh, ABCC4 / RFU, LOC101060439 /// RAP1B / Fold change vs veh, LOC101060439 /// RAP1B / RFU, RFX7 / Fold change vs veh, RFX7 / RFU, GTPBP10 / Fold change vs veh, GTPBP10 / RFU, CNEP1R1 / Fold change vs veh, CNEP1R1 / RFU, BIVM-ERCC5 /// ERCC5 / Fold change vs veh, BIVM-ERCC5 /// ERCC5 / RFU, ILF3 / Fold change vs veh, ILF3 / RFU 11762660_at / Fold change /veh 11762660_at / RFU VCAN (11757783_s_at) / Fold change /veh VCAN (11757783_s_at) / RFU DDX43 (11728927_at) / Fold change /veh DDX43 (11728927_at) / RFU KRT8 (11758188_x_at) / Fold change /veh KRT8 (11758188_x_at) / RFU NKD1 (11759106_at) / Fold change /veh NKD1 (11759106_at) / RFU SRD5A1 (11742802_a_at) / Fold change /veh SRD5A1 (11742802_a_at) / RFU TPSAB1 /// TPSB2 (11721975_s_at) / Fold change /veh TPSAB1 /// TPSB2 (11721975_s_at) / RFU GSTM3 (11746129_a_at) / Fold change /veh GSTM3 (11746129_a_at) / RFU IL23R (11737362_x_at) / Fold change /veh IL23R (11737362_x_at) / RFU TMEM51 (11727254_a_at) / Fold change /veh TMEM51 (11727254_a_at) / RFU PIWIL2 (11732686_x_at) / Fold change /veh PIWIL2 (11732686_x_at) / RFU ORM1 (11744905_x_at) / Fold change /veh ORM1 (11744905_x_at) / RFU CCDC152 (11743942_at) / Fold change /veh CCDC152 (11743942_at) / RFU ECM1 (11717891_a_at) / Fold change /veh ECM1 (11717891_a_at) / RFU IL23R (11748794_a_at) / Fold change /veh IL23R (11748794_a_at) / RFU TNFAIP8L3 (11732012_x_at) / Fold change /veh TNFAIP8L3 (11732012_x_at) / RFU MBOAT4 (11741988_at) / Fold change /veh MBOAT4 (11741988_at) / RFU 11764193_at / Fold change /veh 11764193_at / RFU TMEM53 (11763286_at) / Fold change /veh TMEM53 (11763286_at) / RFU MAGEB2 (11727129_at) / Fold change /veh MAGEB2 (11727129_at) / RFU TMEM200A (11744735_a_at) / Fold change /veh TMEM200A (11744735_a_at) / RFU CCDC152 (11751479_a_at) / Fold change /veh CCDC152 (11751479_a_at) / RFU FAM211A (11726209_a_at) / Fold change /veh FAM211A (11726209_a_at) / RFU RGS16 (11746705_a_at) / Fold change /veh RGS16 (11746705_a_at) / RFU VCAN (11755009_s_at) / Fold change /veh VCAN (11755009_s_at) / RFU RHOB (11743442_s_at) / Fold change /veh RHOB (11743442_s_at) / RFU RGS16 (11720943_a_at) / Fold change /veh RGS16 (11720943_a_at) / RFU RGS16 (11720944_at) / Fold change /veh RGS16 (11720944_at) / RFU, VPS4B / Fold change vs veh, VPS4B / RFU, CREB1 / Fold change vs veh, CREB1 / RFU, DNAJC13 / Fold change vs veh, DNAJC13 / RFU, GNAQ / Fold change vs veh, GNAQ / RFU, CDK5R1 / Fold change vs veh, CDK5R1 / RFU, ZRANB3 / Fold change vs veh, ZRANB3 / RFU, CUL4A / Fold change vs veh, CUL4A / RFU, CCNY / Fold change vs veh, CCNY / RFU, UFL1 / Fold change vs veh, UFL1 / RFU, COG3 / Fold change vs veh, COG3 / RFU, DIAPH2 / Fold change vs veh, DIAPH2 / RFU, SKA2 / Fold change vs veh, SKA2 / RFU, AFF3 / Fold change vs veh, AFF3 / RFU, LMF1 / Fold change vs veh, LMF1 / RFU, IPO11 / Fold change vs veh, IPO11 / RFU, DFFB / Fold change vs veh, DFFB / RFU, FOXP1 / Fold change vs veh, FOXP1 / RFU, CARD8 / Fold change vs veh, CARD8 / RFU, STRN3 / Fold change vs veh, STRN3 / RFU, ADK / Fold change vs veh, ADK / RFU, RASSF2 / Fold change vs veh, RASSF2 / RFU, WIPF1 / Fold change vs veh, WIPF1 / RFU, LARP1B / Fold change vs veh, LARP1B / RFU, RASA1 / Fold change vs veh, RASA1 / RFU, RB1 / Fold change vs veh, RB1 / RFU, PPFIA1 / Fold change vs veh, PPFIA1 / RFU, MAT2A / Fold change vs veh, MAT2A / RFU, CCT5 / Fold change vs veh, CCT5 / RFU, WDR92 / Fold change vs veh, WDR92 / RFU, CUX1 / Fold change vs veh, CUX1 / RFU, TTC7A / Fold change vs veh, TTC7A / RFU, TMEM135 / Fold change vs veh, TMEM135 / RFU, DEPTOR / Fold change vs veh, DEPTOR / RFU, CPM / Fold change vs veh, CPM / RFU, DNAJB6 / Fold change vs veh, DNAJB6 / RFU, CACNA2D3 / Fold change vs veh, CACNA2D3 / RFU, DTX4 / Fold change vs veh, DTX4 / RFU, TFCP2 / Fold change vs veh, TFCP2 / RFU, GMCL1 /// GMCL1P1 / Fold change vs veh, GMCL1 /// GMCL1P1 / RFU, AEBP2 / Fold change vs veh, AEBP2 / RFU, SNHG1 /// SNORD22 /// SNORD25 /// SNORD26 /// SNORD27 /// SNORD28 /// SNORD29 /// SNORD31 / Fold change vs veh, SNHG1 /// SNORD22 /// SNORD25 /// SNORD26 /// SNORD27 /// SNORD28 /// SNORD29 /// SNORD31 / Fold change (Aza/veh), C12orf56 (ProbeSet 11735607_a_at) / Fold change (ACY-1035/veh), C12orf56 (ProbeSet 11735607_a_at) / Fold change (Aza/veh), FGFR1OP (ProbeSet 11751329_s_at) / Fold change (ACY-1035/veh), FGFR1OP (ProbeSet 11751329_s_at) / Fold change (Aza/veh), VPS36 (ProbeSet 11739960_a_at) / Fold change (ACY-1035/veh), VPS36 (ProbeSet 11739960_a_at) / RFU SYPL1 (11715823_x_at) / Fold change /veh SYPL1 (11715823_x_at) / RFU IGFBP7 (11715501_s_at) / Fold change /veh IGFBP7 (11715501_s_at) / RFU REEP3 (11722064_at) / Fold change /veh REEP3 (11722064_at) / RFU IGLL1 (11728026_x_at) / Fold change /veh IGLL1 (11728026_x_at): dose or concentration left out as unconfirmed
Details: ProbeSet 11724877_a_at; LIST D

Nc1ncn([C@@H]2O[C@H](CO)[C@@H](O)[C@H]2O)c(=O)n1 [azacitidine]
Fold change vs veh, AEBP2: 0.82

Reference: paper PMC5218480 (PLoS ONE, 2017)
